Data published in ChEMBL document CHEMBL4265930, “Dual potent ALK and ROS1 inhibitors combating drug-resistant mutants: Synthesis and biological evaluation of aminopyridine-containing diarylaminopyrimidine derivatives” (Eur J Med Chem, 2018).
pIC50: −log10 of the molar value. Active and inactive are the calls of the source. No cut-off for these calls is given here.

Tests used:
A549 = assay: cells; conditions: Homo sapiens, A549, 72 h
Description: Antiproliferative activity against human A549 cells after 72 hrs by MTT assay

KARPAS-299 [1] = assay: Induction of apoptosis in human KARPAS299 cells assessed as early apoptotic cells at 25 to 50 nM after 24 hrs by Hoechst 33258 staining based inverted fluorescence microscopy; assay type: functional, cell-based
KARPAS-299 [2] = assay: Induction of apoptosis in human KARPAS299 cells assessed as late apoptotic cells at 25 to 50 nM after 24 hrs by AO/EB double staining based inverted fluorescence microscopy; assay type: functional, cell-based
[3] = biological target: ALK tyrosine kinase receptor (Homo sapiens, UniProt Q9UM73, G1202R)
ALK tyrosine kinase receptor (Homo sapiens, UniProt Q9UM73, G1202R), sequence (Q9UM73 19-1620 G1202R limits assumed): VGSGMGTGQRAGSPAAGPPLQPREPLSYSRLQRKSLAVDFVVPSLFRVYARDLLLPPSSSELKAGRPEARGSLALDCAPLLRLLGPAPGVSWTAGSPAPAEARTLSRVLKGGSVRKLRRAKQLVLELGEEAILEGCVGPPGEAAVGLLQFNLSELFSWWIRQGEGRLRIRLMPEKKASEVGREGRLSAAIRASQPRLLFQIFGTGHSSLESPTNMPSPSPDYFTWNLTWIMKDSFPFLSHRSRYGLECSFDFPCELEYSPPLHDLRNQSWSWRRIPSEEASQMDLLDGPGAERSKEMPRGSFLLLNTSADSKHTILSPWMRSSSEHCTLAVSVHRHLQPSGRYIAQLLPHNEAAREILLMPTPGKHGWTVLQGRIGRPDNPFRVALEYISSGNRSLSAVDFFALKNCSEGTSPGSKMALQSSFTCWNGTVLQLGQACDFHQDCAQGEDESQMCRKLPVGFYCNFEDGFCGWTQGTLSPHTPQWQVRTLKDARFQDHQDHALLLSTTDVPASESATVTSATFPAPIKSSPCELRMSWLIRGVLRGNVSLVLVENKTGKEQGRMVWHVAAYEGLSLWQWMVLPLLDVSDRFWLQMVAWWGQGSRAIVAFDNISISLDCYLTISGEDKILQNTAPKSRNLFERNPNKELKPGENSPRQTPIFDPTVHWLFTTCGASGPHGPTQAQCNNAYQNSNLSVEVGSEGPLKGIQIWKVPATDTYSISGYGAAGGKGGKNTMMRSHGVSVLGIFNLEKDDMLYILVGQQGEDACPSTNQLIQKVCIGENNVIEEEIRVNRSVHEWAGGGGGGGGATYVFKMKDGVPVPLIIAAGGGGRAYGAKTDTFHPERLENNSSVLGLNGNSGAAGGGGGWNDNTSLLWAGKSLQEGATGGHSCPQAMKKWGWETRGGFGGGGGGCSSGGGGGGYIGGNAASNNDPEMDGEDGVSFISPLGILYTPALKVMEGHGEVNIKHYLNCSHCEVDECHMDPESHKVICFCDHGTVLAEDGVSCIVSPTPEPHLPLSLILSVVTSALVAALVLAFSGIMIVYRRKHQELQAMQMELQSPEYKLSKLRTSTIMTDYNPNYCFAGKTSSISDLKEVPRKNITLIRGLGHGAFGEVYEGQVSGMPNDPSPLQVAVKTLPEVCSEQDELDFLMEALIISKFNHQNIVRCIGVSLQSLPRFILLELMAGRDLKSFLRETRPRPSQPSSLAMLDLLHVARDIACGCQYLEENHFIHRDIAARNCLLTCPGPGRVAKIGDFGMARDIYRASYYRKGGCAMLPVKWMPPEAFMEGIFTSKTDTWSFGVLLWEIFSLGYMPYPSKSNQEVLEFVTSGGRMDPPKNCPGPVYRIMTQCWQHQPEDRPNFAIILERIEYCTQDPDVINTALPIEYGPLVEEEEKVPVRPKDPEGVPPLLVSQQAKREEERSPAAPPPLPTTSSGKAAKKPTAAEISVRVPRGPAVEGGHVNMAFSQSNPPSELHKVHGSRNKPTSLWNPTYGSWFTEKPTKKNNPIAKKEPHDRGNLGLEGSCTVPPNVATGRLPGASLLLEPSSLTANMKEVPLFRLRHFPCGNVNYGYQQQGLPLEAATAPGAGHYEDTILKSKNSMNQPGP

[4] = test system: ALK tyrosine kinase receptor (Homo sapiens), Q9UM73 [L1196M]; assay: Potency index, ratio of ceritinib IC50 to compound IC50 for human N-terminal GST-tagged ALK L1196M mutant cytoplasmic domain (1058 to 1620 residues) expressed in baculovirus expression system
ALK tyrosine kinase receptor (Homo sapiens), Q9UM73 [L1196M], sequence (Q9UM73 whole entry L1196M, looked up, the tested form may be a part): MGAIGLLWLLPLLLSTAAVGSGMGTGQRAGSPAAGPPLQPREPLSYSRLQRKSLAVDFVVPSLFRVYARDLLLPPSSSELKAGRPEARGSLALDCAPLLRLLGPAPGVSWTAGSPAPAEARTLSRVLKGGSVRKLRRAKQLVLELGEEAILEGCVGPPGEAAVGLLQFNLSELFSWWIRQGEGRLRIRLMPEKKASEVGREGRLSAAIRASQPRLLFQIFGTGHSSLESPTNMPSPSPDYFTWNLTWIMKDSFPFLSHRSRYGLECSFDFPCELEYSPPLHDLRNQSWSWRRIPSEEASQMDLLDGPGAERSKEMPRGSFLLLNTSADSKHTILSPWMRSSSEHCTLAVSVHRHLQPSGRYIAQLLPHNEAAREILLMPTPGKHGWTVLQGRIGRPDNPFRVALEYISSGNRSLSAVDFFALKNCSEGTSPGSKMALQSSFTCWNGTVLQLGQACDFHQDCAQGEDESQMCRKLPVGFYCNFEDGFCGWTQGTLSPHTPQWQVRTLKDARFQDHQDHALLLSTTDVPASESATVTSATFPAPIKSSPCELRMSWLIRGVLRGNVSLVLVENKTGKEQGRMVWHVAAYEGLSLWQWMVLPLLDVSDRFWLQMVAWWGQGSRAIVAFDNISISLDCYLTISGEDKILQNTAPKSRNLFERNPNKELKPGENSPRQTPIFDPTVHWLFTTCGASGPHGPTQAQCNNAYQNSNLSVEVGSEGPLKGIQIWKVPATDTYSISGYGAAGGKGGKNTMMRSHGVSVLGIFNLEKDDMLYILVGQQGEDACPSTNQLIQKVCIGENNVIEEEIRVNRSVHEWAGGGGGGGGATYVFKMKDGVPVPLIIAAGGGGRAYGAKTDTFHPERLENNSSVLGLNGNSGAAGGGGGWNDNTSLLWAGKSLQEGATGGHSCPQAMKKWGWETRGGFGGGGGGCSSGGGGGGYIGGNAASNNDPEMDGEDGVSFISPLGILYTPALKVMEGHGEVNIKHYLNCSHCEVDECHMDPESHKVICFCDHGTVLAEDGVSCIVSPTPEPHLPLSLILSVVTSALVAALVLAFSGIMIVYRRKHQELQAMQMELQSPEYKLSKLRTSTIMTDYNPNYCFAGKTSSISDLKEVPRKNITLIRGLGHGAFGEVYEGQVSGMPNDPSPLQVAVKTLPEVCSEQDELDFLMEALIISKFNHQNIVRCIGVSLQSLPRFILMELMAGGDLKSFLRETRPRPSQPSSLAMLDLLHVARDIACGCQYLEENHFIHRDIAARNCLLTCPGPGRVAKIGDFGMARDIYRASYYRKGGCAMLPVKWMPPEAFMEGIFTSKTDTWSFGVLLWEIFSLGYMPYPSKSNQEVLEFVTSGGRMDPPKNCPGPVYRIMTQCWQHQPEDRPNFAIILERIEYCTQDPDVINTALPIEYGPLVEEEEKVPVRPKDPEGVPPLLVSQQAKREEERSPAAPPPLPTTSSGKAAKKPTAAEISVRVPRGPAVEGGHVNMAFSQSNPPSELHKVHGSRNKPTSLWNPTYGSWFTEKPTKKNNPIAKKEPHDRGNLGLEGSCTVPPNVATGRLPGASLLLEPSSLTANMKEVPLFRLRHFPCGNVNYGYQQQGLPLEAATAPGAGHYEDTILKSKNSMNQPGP

NCI-H2228 = assay: cells; conditions: Homo sapiens, NCI-H2228, 72 h
Description: Antiproliferative activity against human NCI-H2228 cells harboring EML4-ALK after 72 hrs by MTT assay

[5] = biological target: ALK tyrosine kinase receptor (Homo sapiens, UniProt Q9UM73, L1196M)
ALK tyrosine kinase receptor (Homo sapiens, UniProt Q9UM73, L1196M), sequence (Q9UM73 19-1620 L1196M limits assumed): as the sequence (Q9UM73 19-1620 G1202R limits assumed) above, with L1178M, R1184G counted along it
Description: Inhibition of human N-terminal GST-tagged ALK L1196M mutant cytoplasmic domain (1058 to 1620 residues) expressed in baculovirus expression system after 1 hr by mobility shift assay

[6] = biological target: T1, ALK tyrosine kinase receptor (Homo sapiens, UniProt Q9UM73); assay: Inhibition of ALK in human KARPAS299 cells assessed as decrease in Akt phosphorylation after 24 hrs by Western blot analysis; assay type: cell-based
Target sequence in this assay (Q9UM73 19-1620 limits assumed): as the sequence (Q9UM73 19-1620 G1202R limits assumed) above, with R1184G counted along it

[7] = biological target: T1, ALK tyrosine kinase receptor; assay: Inhibition of ALK phosphorylation in human KARPAS299 cells after 24 hrs by Western blot analysis; assay type: cell-based
Target sequence in this assay (Q9UM73 19-1620 limits assumed): as the sequence (Q9UM73 19-1620 G1202R limits assumed) above, with R1184G counted along it

KARPAS-299 [8] = assay: cells; conditions: Homo sapiens, KARPAS-299, 72 h
Description: Antiproliferative activity against human KARPAS299 cells harboring NPM-ALK after 72 hrs by MTT assay

BaF3 = assay: cells; conditions: Mus musculus, BaF3, 72 h
[9] = test system: ALK tyrosine kinase receptor (Homo sapiens), Q9UM73 [G1202R]; assay: Potency index, ratio of ceritinib IC50 to compound IC50 for human N-terminal GST-tagged ALK G1202R mutant cytoplasmic domain (1058 to 1620 residues) expressed in baculovirus expression system
ALK tyrosine kinase receptor (Homo sapiens), Q9UM73 [G1202R], sequence (Q9UM73 whole entry G1202R, the tested form may be a part): as the sequence (Q9UM73 whole entry L1196M, looked up, the tested form may be a part) above, with M1196L, G1202R counted along it

[10] = biological target: Epidermal growth factor receptor (Homo sapiens, UniProt P00533)
Epidermal growth factor receptor, sequence (P00533 whole entry): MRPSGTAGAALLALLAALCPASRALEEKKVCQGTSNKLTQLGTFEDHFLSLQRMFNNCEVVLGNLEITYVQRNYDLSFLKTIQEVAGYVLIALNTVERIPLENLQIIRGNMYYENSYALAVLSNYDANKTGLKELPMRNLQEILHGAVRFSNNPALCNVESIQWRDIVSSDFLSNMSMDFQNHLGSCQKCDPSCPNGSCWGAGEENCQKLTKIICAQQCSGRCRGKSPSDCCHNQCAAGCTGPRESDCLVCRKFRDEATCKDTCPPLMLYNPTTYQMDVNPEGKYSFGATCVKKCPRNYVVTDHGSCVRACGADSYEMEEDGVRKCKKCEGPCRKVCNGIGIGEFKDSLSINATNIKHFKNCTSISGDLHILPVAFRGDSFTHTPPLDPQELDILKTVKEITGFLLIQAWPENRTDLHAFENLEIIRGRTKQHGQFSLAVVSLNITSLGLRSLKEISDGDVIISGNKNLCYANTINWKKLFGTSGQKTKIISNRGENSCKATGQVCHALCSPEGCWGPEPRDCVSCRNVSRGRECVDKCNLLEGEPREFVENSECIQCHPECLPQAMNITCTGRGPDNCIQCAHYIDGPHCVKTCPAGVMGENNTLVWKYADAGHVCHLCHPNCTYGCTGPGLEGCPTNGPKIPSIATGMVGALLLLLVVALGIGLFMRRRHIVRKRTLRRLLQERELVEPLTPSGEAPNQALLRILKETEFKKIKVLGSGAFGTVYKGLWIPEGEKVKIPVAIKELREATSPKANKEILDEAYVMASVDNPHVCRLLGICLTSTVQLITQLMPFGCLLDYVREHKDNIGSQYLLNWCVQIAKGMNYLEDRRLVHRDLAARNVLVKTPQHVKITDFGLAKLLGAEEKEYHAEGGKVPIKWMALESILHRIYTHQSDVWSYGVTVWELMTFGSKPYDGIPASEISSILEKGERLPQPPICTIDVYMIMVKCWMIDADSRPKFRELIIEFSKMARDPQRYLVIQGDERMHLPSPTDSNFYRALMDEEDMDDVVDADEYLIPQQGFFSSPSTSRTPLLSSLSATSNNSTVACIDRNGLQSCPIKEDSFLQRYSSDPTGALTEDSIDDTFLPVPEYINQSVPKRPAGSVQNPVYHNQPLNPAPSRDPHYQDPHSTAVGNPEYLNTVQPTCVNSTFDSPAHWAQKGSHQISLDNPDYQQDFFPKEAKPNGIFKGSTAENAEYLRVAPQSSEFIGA
Description: Inhibition of human N-terminal GST-tagged EGFR cytoplasmic domain (669 to 1210 residues) expressed in baculovirus expression system after 1 hr by mobility shift assay

HCC78 = assay: Antiproliferative activity against human HCC78 cells harboring SLC34A2-ROS1 after 72 hrs by MTT assay; assay type: functional, cell-based; conditions: HCC78, 72 h
[11] = biological target: T1, ALK tyrosine kinase receptor; assay: Inhibition of ALK in human KARPAS299 cells assessed as decrease in STAT3 phosphorylation after 24 hrs by Western blot analysis; assay type: cell-based
Target sequence in this assay (Q9UM73 19-1620 limits assumed): as the sequence (Q9UM73 19-1620 G1202R limits assumed) above, with R1184G counted along it

[12] = biological target: T1, ALK tyrosine kinase receptor
Target sequence in this assay (Q9UM73 whole entry): as the sequence (Q9UM73 whole entry L1196M, looked up, the tested form may be a part) above, with M1196L counted along it
Description: Inhibition of human N-terminal GST-tagged ALK cytoplasmic domain (1058 to 1620 residues) expressed in baculovirus expression system after 1 hr by mobility shift assay

[13] = biological target: Proto-oncogene tyrosine-protein kinase ROS (Homo sapiens, UniProt P08922); assay: Inhibition of human N-terminal GST-tagged ROS cytoplasmic domain (1883 to 2347 residues) expressed in baculovirus expression system after 1 hr by mobility shift assay

pIC50 (A549) | pIC50 (NCI-H2228) | pIC50 (KARPAS-299 [8]) | pIC50 (BaF3) | pIC50 (HCC78) | Compound | Activity (KARPAS-299 [1]) | Activity (KARPAS-299 [2]) | pIC50 [3] | Ratio IC50 [4] | pIC50 [5] | inhibition [6] | inhibition [7] | Ratio IC50 [9] | pIC50 [10] | inhibition [11] | pIC50 [12] | pIC50 [13]
6.09 | 6.39 | 6.51 | 6.07 | 7.05 | CC(C)Oc1nc(N2CCCC2)ccc1Nc1ncc(Cl)c(Nc2ccccc2NS(C)(=O)=O)n1 |  |  |  |  |  |  |  |  |  |  |  | 
< 6.00 | 6.44 | 7.22 | 6.74 | 6.51 | CCN(CC)c1ccc(Nc2ncc(Cl)c(Nc3ccccc3NS(C)(=O)=O)n2)c(OC)n1 |  |  |  |  |  |  |  |  |  |  |  | 
< 6.00 | 6.32 | 7.10 | 6.13 | 7.10 | CS(=O)(=O)Nc1ccccc1Nc1nc(Nc2ccc(N3CCCC3)nc2)ncc1Cl |  |  |  |  |  |  |  |  |  |  |  | 
< 6.00 | 6.44 | 7.10 | 6.64 | 6.68 | C/C=C/C(=O)Nc1ccccc1Nc1nc(Nc2ccc(N3CCCCC3)nc2OC)ncc1Cl |  |  |  |  |  |  |  |  |  |  |  | 
< 6.00 | 7.30 | 6.96 | 7.15 | 7.05 | COc1nc(N2CC(O)C2)ccc1Nc1ncc(Cl)c(Nc2ccccc2NS(=O)(=O)C2CC2)n1 |  |  |  |  |  |  |  |  |  |  |  | 
< 6.00 | 6.57 | 6.32 | 6.20 | 6.41 | COc1nc(N2CCCCC2)ccc1Nc1ncc(Cl)c(Nc2ccccc2NS(=O)(=O)C2CC2)n1 |  |  |  |  |  |  |  |  |  |  |  | 
< 6.00 | 6.19 | 6.34 | 6.92 | 6.59 | CCN(CC)c1ccc(Nc2ncc(Cl)c(Nc3ccccc3NS(=O)(=O)C3CC3)n2)c(OC)n1 |  |  |  |  |  |  |  |  |  |  |  | 
< 6.00 | 6.39 | 6.92 | < 6.00 | 6.62 | COc1nc(N2CCCC2)ccc1Nc1ncc(Cl)c(Nc2ccccc2NS(=O)(=O)C2CC2)n1 |  |  |  |  |  |  |  |  |  |  |  | 
6.07 | 7.10 | 7.40 | 6.11 | 7.15 | CN1CCN(c2ccc(Nc3ncc(Cl)c(Nc4ccccc4NS(C)(=O)=O)n3)cn2)CC1 |  |  |  |  |  |  |  |  |  |  |  | 
< 6.00 | 7.05 | 7.26 | 6.77 | 6.32 | COc1nc(N2CCOCC2)ccc1Nc1ncc(Cl)c(Nc2ccccc2NS(=O)(=O)C2CC2)n1 |  |  |  |  |  |  |  |  |  |  |  | 
< 6.00 | < 6.00 | 6.24 | < 6.00 | 6.04 | C/C=C/C(=O)Nc1ccccc1Nc1nc(Nc2ccc(N3CCNC(C)C3)nc2OC)ncc1Cl (stereo unspecified) |  |  |  |  |  |  |  |  |  |  |  | 
< 6.00 | 6.38 | 6.47 | < 6.00 | 6.89 | CC(C)Sc1nc(N2CCN(C)CC2)ccc1Nc1ncc(Cl)c(Nc2ccccc2NS(C)(=O)=O)n1 |  |  |  |  |  |  |  |  |  |  |  | 
< 6.00 | 6.85 | 7.22 | 6.36 | 7.05 | CN1CCN(c2ccc(Nc3ncc(Cl)c(Nc4ccccc4NS(=O)(=O)C4CC4)n3)cn2)CC1 |  |  |  |  |  |  |  |  |  |  |  | 
< 6.00 | 6.42 | 6.66 | 6.52 | 6.80 | C/C=C/C(=O)Nc1ccccc1Nc1nc(Nc2ccc(N3CCCC3)nc2OC)ncc1Cl |  |  |  |  |  |  |  |  |  |  |  | 

More lines, now with the values behind:

Compound | pIC50 (A549) | pIC50 (NCI-H2228) | pIC50 (KARPAS-299 [8]) | pIC50 (BaF3) | pIC50 (HCC78) | Activity (KARPAS-299 [1]) | Activity (KARPAS-299 [2]) | pIC50 [3] | Ratio IC50 [4] | pIC50 [5] | inhibition [6] | inhibition [7] | Ratio IC50 [9] | pIC50 [10] | inhibition [11] | pIC50 [12] | pIC50 [13]
COc1nc(N2CCN(C)CC2)ccc1Nc1ncc(Cl)c(Nc2ccccc2NS(C)(=O)=O)n1 | < 6.00 | 7.92 | 8.00 | 7.52 | 7.37 | Active | Active | 5.41 | 11 to 23 | 5.89 | Dose-dependent effect | Dose-dependent effect | 11 to 23 | < 3.00 | Dose-dependent effect | 5.68 | 5.64
COc1nc(N2CCCCC2)ccc1Nc1ncc(Cl)c(Nc2ccccc2NS(C)(=O)=O)n1 | < 6.00 | 6.89 | 7.40 | 6.48 | 6.72 |  |  |  |  |  |  |  |  |  |  |  | 
COc1nc(N2CCNC(C)C2)ccc1Nc1ncc(Cl)c(Nc2ccccc2NS(C)(=O)=O)n1 (stereo unspecified) | < 6.00 | 6.31 | 6.41 | < 6.00 | 6.36 |  |  |  |  |  |  |  |  |  |  |  | 
CC(C)Oc1nc(N2CCN(C)CC2)ccc1Nc1ncc(Cl)c(Nc2ccccc2NS(C)(=O)=O)n1 | 6.06 | 7.34 | 7.74 | 6.06 | 6.59 |  |  | 5.03 |  | 5.32 |  |  |  | < 3.00 |  | 5.38 | 5.70
COc1nc(N2CCCC2)ccc1Nc1ncc(Cl)c(Nc2ccccc2NS(C)(=O)=O)n1 | 6.15 | 6.77 | 7.10 | 6.89 | 6.62 |  |  |  |  |  |  |  |  |  |  |  | 
C/C=C/C(=O)Nc1ccccc1Nc1nc(Nc2ccc(N3CCN(C)CC3)nc2OC)ncc1Cl | < 6.00 | 6.57 | 7.14 | 6.96 | 6.39 |  |  |  |  |  |  |  |  |  |  |  | 
COc1nc(N2CCSCC2)ccc1Nc1ncc(Cl)c(Nc2ccccc2NS(C)(=O)=O)n1 | 6.07 | 7.62 | 7.57 | 7.30 | 7.10 |  |  | 5.10 |  | 5.80 |  |  |  | < 3.00 |  | 5.55 | 5.21
COc1nc(N2CCN(C)CC2)ccc1Nc1ncc(Cl)c(Nc2ccccc2NS(=O)(=O)C2CC2)n1 | < 6.00 | 7.22 | 7.55 | 7.05 | 6.57 |  |  | 5.22 |  | 5.41 |  |  |  | < 3.00 |  | 5.41 | 5.34
Cc1cc(Nc2ncc(Cl)c(Nc3ccccc3S(=O)(=O)C(C)C)n2)c(OC(C)C)cc1C1CCNCC1 [CERITINIB] | < 6.00 | 7.59 | 7.39 | < 6.00 |  |  |  |  |  |  |  |  |  |  |  |  | 
COc1nc(N2CCN(CCO)CC2)ccc1Nc1ncc(Cl)c(Nc2ccccc2NS(C)(=O)=O)n1 | < 6.00 | 7.15 | 7.42 | 7.05 | 6.96 |  |  | 5.11 |  | 5.66 |  |  |  | < 3.00 |  | 5.49 | 5.47
COc1nc(N2CC(O)C2)ccc1Nc1ncc(Cl)c(Nc2ccccc2NS(C)(=O)=O)n1 | < 6.00 | 7.38 | 7.22 | 7.49 | 7.46 |  |  | 5.28 |  | 5.70 |  |  |  | < 3.00 |  | 5.85 | 5.80
COc1nc(N2CCN(C)CC2)ccc1Nc1ncc(Cl)c(Nc2ccccc2NC(C)=O)n1 | 6.15 | 6.80 | 7.57 | 7.05 | 6.85 |  |  |  |  |  |  |  |  |  |  |  | 
CCN1CCN(c2ccc(Nc3ncc(Cl)c(Nc4ccccc4NS(C)(=O)=O)n3)c(OC)n2)CC1 | < 6.00 | 6.02 | 6.06 | < 6.00 | 6.13 |  |  |  |  |  |  |  |  |  |  |  | 
COc1nc(N2CCN(CCO)CC2)ccc1Nc1ncc(Cl)c(Nc2ccccc2NS(=O)(=O)C2CC2)n1 | < 6.00 | 7.74 | 7.46 | 7.40 | 6.89 |  |  |  |  |  |  |  |  |  |  |  | 
CC(C)Sc1nc(N2CCCC2)ccc1Nc1ncc(Cl)c(Nc2ccccc2NS(C)(=O)=O)n1 | < 6.00 | 6.01 | 6.12 | < 6.00 | 6.49 |  |  |  |  |  |  |  |  |  |  |  | 
